Assay [1] relates to HL-60. Put plainly: Inhibition of 2-[1,2-3H(N)]deoxy-D-glucose uptake in human HL60 cells by Michaelis-Menten plot. Type of assay: functional, cell-based.
Assay [2] concerns HL-60. Kind of assay: Inhibition of 2-[1,2-3H(N)]deoxy-D-glucose uptake in human HL60 cells at 75 uM by scintillation spectrometry in presence of buffer containing NaCl and Na2HPO4. In kind it is functional.
Assay [3] deals with U-937. Put plainly: Inhibition of [14C]dehydroascorbic acid uptake in human U937 cells at 38 uM by scintillation spectrometry in presence of buffer containing NaCl and Na2HPO4. In kind it is functional.
Assay [4] deals with U-937. Put plainly: Inhibition of [14C]dehydroascorbic acid uptake in human U937 cells by scintillation spectrometry in presence of buffer containing NaCl and Na2HPO4. Type of assay: functional, cell-based.
The target in assay [5] is T1, Solute carrier family 2, facilitated glucose transporter member 1 (Rattus norvegicus) (UniProt P11167).
T1 sequence (whole entry): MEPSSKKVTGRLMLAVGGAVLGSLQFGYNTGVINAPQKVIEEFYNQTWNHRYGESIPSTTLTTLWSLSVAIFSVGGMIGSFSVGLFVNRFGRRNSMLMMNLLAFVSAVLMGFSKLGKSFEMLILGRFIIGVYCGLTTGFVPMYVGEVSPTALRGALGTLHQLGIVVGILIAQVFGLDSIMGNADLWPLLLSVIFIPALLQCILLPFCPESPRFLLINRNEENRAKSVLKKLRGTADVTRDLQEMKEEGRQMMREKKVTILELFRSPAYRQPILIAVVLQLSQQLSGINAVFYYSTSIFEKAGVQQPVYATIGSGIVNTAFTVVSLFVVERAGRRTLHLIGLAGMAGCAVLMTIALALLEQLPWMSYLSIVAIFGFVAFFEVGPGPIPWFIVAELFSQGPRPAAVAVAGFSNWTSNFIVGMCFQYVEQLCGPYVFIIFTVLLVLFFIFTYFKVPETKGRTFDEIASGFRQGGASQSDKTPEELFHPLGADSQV
Put plainly: Blockade of rat Glut1 expressed in CHO cells assessed as inhibition of [14C]dehydroascorbic acid uptake by scintillation spectrometry. In kind it is cell-based.

The subject of assay [6] is HL-60. Kind of assay: Inhibition of 2-[1,2-3H(N)]deoxy-D-glucose uptake in human HL60 cells at >100 uM by scintillation spectrometry in presence of sodium-free buffer. Type of assay: functional.
The test system of assay [7] is U-937. Kind of assay: Inhibition of [14C]dehydroascorbic acid uptake in human U937 cells by Michaelis-Menten plot. In kind it is functional, cell-based.
Assay [8] has as its target T2, Solute carrier family 2, facilitated glucose transporter member 3 (Homo sapiens) (UniProt P11169).
T2 sequence (whole entry): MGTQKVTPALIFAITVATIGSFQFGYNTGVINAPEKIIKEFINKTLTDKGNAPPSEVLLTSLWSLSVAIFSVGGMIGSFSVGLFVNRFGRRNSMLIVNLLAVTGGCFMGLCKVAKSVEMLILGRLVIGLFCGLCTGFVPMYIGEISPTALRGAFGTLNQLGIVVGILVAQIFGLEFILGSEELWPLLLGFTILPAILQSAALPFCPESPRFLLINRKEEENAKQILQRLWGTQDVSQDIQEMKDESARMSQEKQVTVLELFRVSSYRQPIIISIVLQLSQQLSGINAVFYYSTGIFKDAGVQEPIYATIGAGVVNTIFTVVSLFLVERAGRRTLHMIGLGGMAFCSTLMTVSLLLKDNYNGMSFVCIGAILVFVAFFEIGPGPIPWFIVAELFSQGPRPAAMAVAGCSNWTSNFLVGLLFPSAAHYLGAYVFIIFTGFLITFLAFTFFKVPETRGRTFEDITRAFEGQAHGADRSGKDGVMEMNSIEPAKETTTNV
Kind of assay: Blockade of human Glut3 expressed in CHO cells assessed as inhibition of 2-[1,2-3H(N)]deoxy-D-glucose uptake by scintillation spectrometry. Type of assay: cell-based.

For assay [9], the system named is U-937. Put plainly: Inhibition of 2-[1,2-3H(N)]deoxy-D-glucose uptake in human U937 cells at >100 uM by scintillation spectrometry in presence of sodium-free buffer. Type of assay: functional.
Assay [10] addresses T2, Solute carrier family 2, facilitated glucose transporter member 3 (Homo sapiens). Put plainly: Blockade of human Glut3 expressed in CHO cells assessed as inhibition of [14C]dehydroascorbic acid uptake by scintillation spectrometry. In kind it is cell-based.
Assay [11] deals with U-937. Kind of assay: Inhibition of 2-[1,2-3H(N)]deoxy-D-glucose uptake in human U937 cells at >500 uM by scintillation spectrometry in presence of buffer containing NaCl and Na2HPO4. Type of assay: functional.
In assay [12] the test system is HL-60. Kind of assay: Inhibition of [14C]dehydroascorbic acid uptake in human HL60 cells by scintillation spectrometry in presence of sodium-free buffer. Type of assay: functional, cell-based.
The subject of assay [13] is U-937. Kind of assay: Inhibition of 2-[1,2-3H(N)]deoxy-D-glucose uptake in human U937 cells at 73 uM by scintillation spectrometry in presence of buffer containing NaCl and Na2HPO4. Type of assay: functional.
Assay [14] has as its system U-937. Kind of assay: Inhibition of 2-[1,2-3H(N)]deoxy-D-glucose uptake in human U937 cells by scintillation spectrometry in presence of sodium-free buffer. Type of assay: functional, cell-based.
Assay [15] concerns U-937. Kind of assay: Inhibition of [14C]dehydroascorbic acid uptake in human U937 cells by scintillation spectrometry in presence of sodium-free buffer. In kind it is functional, cell-based.
For assay [16], the target named is T1, Solute carrier family 2, facilitated glucose transporter member 1 (Rattus norvegicus). Put plainly: Blockade of rat Glut1 expressed in CHO cells assessed as inhibition of 2-[1,2-3H(N)]deoxy-D-glucose uptake by scintillation spectrometry. Type of assay: cell-based.
Assay [17] has as its system U-937. Kind of assay: Inhibition of 2-[1,2-3H(N)]deoxy-D-glucose uptake in human U937 cells by Michaelis-Menten plot. In kind it is functional, cell-based.
For assay [18], the system named is HL-60. Put plainly: Inhibition of [14C]dehydroascorbic acid uptake in human HL60 cells by scintillation spectrometry in presence of buffer containing NaCl and Na2HPO4. Type of assay: functional, cell-based.
Assay [19] has as its system HL-60. Put plainly: Inhibition of 2-[1,2-3H(N)]deoxy-D-glucose uptake in human HL60 cells by scintillation spectrometry in presence of sodium-free buffer. In kind it is functional, cell-based.
In assay [20] the test system is HL-60. Kind of assay: Inhibition of 2-[1,2-3H(N)]deoxy-D-glucose uptake in human HL60 cells at >500 uM by scintillation spectrometry in presence of buffer containing NaCl and Na2HPO4. In kind it is functional.
The test system of assay [21] is HL-60. Kind of assay: Inhibition of [14C]dehydroascorbic acid uptake in human HL60 cells at 32 uM by scintillation spectrometry in presence of buffer containing NaCl and Na2HPO4. In kind it is functional.

What is called Ki is the equilibrium dissociation constant of an inhibitor or competing ligand from its target. High values mean weaker binding, low ones tighter binding. Usually inhibition stands for the relative decrease from the control value, in per cent.

Calls of active or inactive are those of the source. No cut-off for these calls is given here.

Consider `Oc1ccc(/C=C/c2cc(O)cc(O)c2)cc1` [RESVERATROL], for which the figures for the Ki in assay [1], in assay [7] and in assay [17] were 85 µM, 35 µM and 89 µM, respectively. Also, the inhibition at 75 µM in assay [2] was determined as 50%. Moreover, the inhibition at 38 µM in assay [3] was 50%. For the same compound, the Activity entry in assay [4] and in [18] was “Dose-dependent effect” in each case. The result in [5], in [8], in [10], in assay [12], in assay [14] and in [15] was Active. The result in assay [16] and in assay [19] was Active. The “inhibition (INH)” value was 10% in [6], 10% in [9], 20% in assay [11] and 20% in [20]. For the same compound, in assay [13], the inhibition at 73 µM worked out at 50%. In addition, in assay [21], the inhibition at 32 µM is 50%.

The values are drawn from ChEMBL document CHEMBL1150577, “Inhibition of glucose and dehydroascorbic acid uptakes by resveratrol in human transformed myelocytic cells” (J Nat Prod, 2001).
